Where “and” joins values, the source holds several entries; their conditions need not be identical. Identical values can stand only once. Inconclusive results and toxic doses are left out. Rule as the data show it: active = T/C of 150% or more; inactive = T/C below 125%.
System: L1210 leukemia ip in BDF1 mice, survival T/C
Assay: NCI In Vivo Anticancer Drug Screen. Data for tumor model L1210 Leukemia (intraperitoneal) in B6D2F1 (BDF1) mice
Settings: endpoint: mean survival time, higher = longer survival
Method in brief: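 Value reflects the ratio of survival in compound-treated mice to survival in vehicle-treated controls, with both groups carrying the same transplanted tumor.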

[1] = dose: 100.0 mg/kg/injection, schedule: Q04DX003 (ip), vehicle: other
[2] = dose: 200.0 mg/kg/injection, schedule: Q04DX003 (ip), vehicle: other
[3] = dose: 400.0 mg/kg/injection, schedule: Q04DX003 (ip), vehicle: other
[4] = dose: 50.0 mg/kg/injection, schedule: Q01DX009 (ip), vehicle: saline with Tween-80
[5] = dose: 100.0 mg/kg/injection, schedule: Q04DX003 (ip), vehicle: saline with Tween-80
[6] = dose: 200.0 mg/kg/injection, schedule: Q04DX003 (ip), vehicle: saline with Tween-80
[7] = dose: 100.0 mg/kg/injection, schedule: Q01DX009 (ip), vehicle: Klucel (hydroxypropylcellulose) (HPC)
[8] = dose: 200.0 mg/kg/injection, schedule: Q01DX009 (ip), vehicle: Klucel (hydroxypropylcellulose) (HPC)
[9] = dose: 400.0 mg/kg/injection, schedule: Q01DX009 (ip), vehicle: Klucel (hydroxypropylcellulose) (HPC)
[10] = dose: 100.0 mg/kg/injection, schedule: Q04DX002 (ip), vehicle: Klucel (hydroxypropylcellulose) (HPC)
[11] = dose: 100.0 mg/kg/injection, schedule: Q04DX003 (ip), vehicle: Klucel (hydroxypropylcellulose) (HPC)
[12] = dose: 200.0 mg/kg/injection, schedule: Q04DX002 (ip), vehicle: Klucel (hydroxypropylcellulose) (HPC)
[13] = dose: 200.0 mg/kg/injection, schedule: Q04DX003 (ip), vehicle: Klucel (hydroxypropylcellulose) (HPC)
[14] = dose: 400.0 mg/kg/injection, schedule: Q04DX003 (ip), vehicle: Klucel (hydroxypropylcellulose) (HPC)
[15] = dose: 100.0 mg/kg/injection, schedule: Q01DX001 (ip), vehicle: carboxymethylcellulose (CMC)
[16] = dose: 200.0 mg/kg/injection, schedule: Q01DX001 (ip), vehicle: carboxymethylcellulose (CMC)
[17] = dose: 400.0 mg/kg/injection, schedule: Q01DX001 (ip), vehicle: carboxymethylcellulose (CMC)
[18] = dose: 12.5 mg/kg/injection, schedule: Q01DX001 (ip), vehicle: saline
[19] = dose: 25.0 mg/kg/injection, schedule: Q01DX001 (ip), vehicle: saline

Measured: T/C

Cc1ccc(N=Nc2c(O)ccc3ccccc23)c([N+](=O)[O-])c1
inactive: dose: 100.0 mg/kg/injection, schedule: Q01DX001 (ip), vehicle: other 96 % of control | [1] 95 % of control | dose: 200.0 mg/kg/injection, schedule: Q01DX001 (ip), vehicle: other 95 % of control | [2] 91 % of control | dose: 400.0 mg/kg/injection, schedule: Q01DX001 (ip), vehicle: other 96 % of control | [3] 93 % of control

CCN(CC)CCOc1ccc(/C=C2\CCc3ccccc3C2=O)cc1
inactive: dose: 25.0 mg/kg/injection, schedule: Q01DX007 (ip), vehicle: saline 104 % of control | dose: 50.0 mg/kg/injection, schedule: Q01DX007 (ip), vehicle: saline 102 % of control | dose: 50.0 mg/kg/injection, schedule: Q04DX003 (ip), vehicle: saline 95 % of control | dose: 100.0 mg/kg/injection, schedule: Q01DX007 (ip), vehicle: saline 96 % of control | dose: 100.0 mg/kg/injection, schedule: Q04DX003 (ip), vehicle: saline 95 % of control

CCCCCCCCCCCCOc1ccccc1
inactive: [4] 97 % of control | dose: 100.0 mg/kg/injection, schedule: Q01DX009 (ip), vehicle: saline with Tween-80 92 % of control | [5] 88 % of control | dose: 200.0 mg/kg/injection, schedule: Q01DX009 (ip), vehicle: saline with Tween-80 109 % of control | [6] 92 % of control

COc1ccc([N+](=O)[O-])cc1NC(=O)c1cccc(Cl)c1
inactive: [7] 114 % of control | [8] 98 % of control | [9] 102 % of control

COc1ccc(NC(=O)NCCN(C)c2ccccc2)cc1
inactive: [7] 93 % of control and 90 % of control | [10] 96 % of control and 101 % of control and 107 % of control | [11] 98 % of control | [8] 97 % of control and 104 % of control | [12] 98 % of control and 100 % of control and 104 % of control | [13] 101 % of control | [9] 100 % of control and 101 % of control | dose: 400.0 mg/kg/injection, schedule: Q04DX002 (ip), vehicle: Klucel (hydroxypropylcellulose) (HPC) 96 % of control and 101 % of control and 103 % of control | [14] 98 % of control

CCCC(C)(O)C(C)(C)C (centres undefined)
inactive: [15] 106 % of control | [16] 106 % of control | [17] 90 % of control

CCC(C)C(CN)(CCCCN(C)C)c1cccc2ccccc12 (centres undefined)
inactive: [5] 97 % of control | [6] 100 % of control

C[n+]1c2ccccc2cc2ccc(N=[N+]=[N-])cc21
inactive: dose: 6.25 mg/kg/injection, schedule: Q01DX009 (ip), vehicle: saline 101 % of control | dose: 6.25 mg/kg/injection, schedule: Q04DX003 (ip), vehicle: saline 101 % of control | [18] 97 % of control | dose: 12.5 mg/kg/injection, schedule: Q01DX009 (ip), vehicle: saline 98 % of control | dose: 12.5 mg/kg/injection, schedule: Q04DX003 (ip), vehicle: saline 100 % of control | [19] 97 % of control | dose: 25.0 mg/kg/injection, schedule: Q01DX009 (ip), vehicle: saline 98 % of control | dose: 25.0 mg/kg/injection, schedule: Q04DX003 (ip), vehicle: saline 111 % of control | dose: 35.0 mg/kg/injection, schedule: Q01DX009 (ip), vehicle: saline 104 % of control

CC(C)CC(NC(=O)CNC(=O)OCc1ccccc1)C(=O)OCc1ccccc1 (centres undefined)
inactive: [1] 100 % of control | [2] 108 % of control | [3] 102 % of control

C=[CH][Pb]([CH]=C)([O]C(=O)C(C)C)[O]C(=O)C(C)C
inactive: dose: 5.0 mg/kg/injection, schedule: Q04DX003 (ip), vehicle: saline 104 % of control | dose: 10.0 mg/kg/injection, schedule: Q04DX003 (ip), vehicle: saline 106 % of control | dose: 20.0 mg/kg/injection, schedule: Q04DX003 (ip), vehicle: saline 101 % of control

Cc1ccc(Cc2c(C=O)nc(N)[nH]c2=O)c2ccccc12
inactive: [10] 90 % of control | [12] 97 % of control

CCCCC(O)(CCCC)C(CC)CC
inactive: [5] 108 % of control | [6] 99 % of control | dose: 400.0 mg/kg/injection, schedule: Q04DX003 (ip), vehicle: saline with Tween-80 101 % of control

CCCCCCCCCCCCCCCCOc1c(Br)cc(Br)cc1Br
inactive: dose: 100.0 mg/kg/injection, schedule: Q01DX001 (ip), vehicle: Klucel (hydroxypropylcellulose) (HPC) 87 % of control | dose: 200.0 mg/kg/injection, schedule: Q01DX001 (ip), vehicle: Klucel (hydroxypropylcellulose) (HPC) 90 % of control | dose: 400.0 mg/kg/injection, schedule: Q01DX001 (ip), vehicle: Klucel (hydroxypropylcellulose) (HPC) 105 % of control

CNC(=O)Nc1nc2ccccc2[nH]1
inactive: dose: 100.0 mg/kg/injection, schedule: Q01DX001 (ip), vehicle: saline 103 % of control | [5] 109 % of control | dose: 200.0 mg/kg/injection, schedule: Q01DX001 (ip), vehicle: saline 115 % of control | [6] 109 % of control | dose: 400.0 mg/kg/injection, schedule: Q01DX001 (ip), vehicle: saline 100 % of control

O=C(Nc1ccccc1)C(CCCN1C(=O)c2ccccc2C1=O)N1C(=O)c2ccccc2C1=O (centres undefined)
inactive: dose: 75.0 mg/kg/injection, schedule: Q01DX001 (ip), vehicle: saline 100 % of control | dose: 150.0 mg/kg/injection, schedule: Q01DX001 (ip), vehicle: saline 104 % of control | dose: 300.0 mg/kg/injection, schedule: Q01DX001 (ip), vehicle: saline 96 % of control

NCC1C2CC3CC(C2)CC1C3 (centres undefined)
inactive: [18] 106 % of control | [19] 97 % of control | dose: 50.0 mg/kg/injection, schedule: Q01DX001 (ip), vehicle: saline 93 % of control | [10] 98 % of control | [12] 96 % of control

CCOC(=O)N/N=C/c1c(F)cccc1Cl
inactive: dose: 75.0 mg/kg/injection, schedule: Q01DX001 (ip), vehicle: carboxymethylcellulose (CMC) 101 % of control | dose: 150.0 mg/kg/injection, schedule: Q01DX001 (ip), vehicle: carboxymethylcellulose (CMC) 106 % of control | dose: 300.0 mg/kg/injection, schedule: Q01DX001 (ip), vehicle: carboxymethylcellulose (CMC) 101 % of control

COc1cc2ccc(CCN)cc2cc1OC
inactive: dose: 12.5 mg/kg/injection, schedule: Q01DX009 (ip), vehicle: saline with Tween-80 101 % of control | dose: 25.0 mg/kg/injection, schedule: Q01DX009 (ip), vehicle: saline with Tween-80 101 % of control | [4] 105 % of control

COc1ccc(C2(O)C3CCC(C3)C2(C)C)cc1 (centres undefined)
inactive: dose: 50.0 mg/kg/injection, schedule: Q01DX001 (ip), vehicle: carboxymethylcellulose (CMC) 89 % of control | [15] 89 % of control | [16] 89 % of control | [17] 95 % of control

O=P(c1ccccc1)(N1CC1)N1CC1
inactive: dose: 7.5 mg/kg/injection, schedule: Q04DX003 (ip), vehicle: saline 100 % of control | dose: 15.0 mg/kg/injection, schedule: Q01DX001 (ip), vehicle: saline 102 % of control | dose: 15.0 mg/kg/injection, schedule: Q04DX003 (ip), vehicle: saline 95 % of control | dose: 30.0 mg/kg/injection, schedule: Q01DX001 (ip), vehicle: saline 107 % of control | dose: 30.0 mg/kg/injection, schedule: Q04DX003 (ip), vehicle: saline 98 % of control

O=S(=O)(OCC(F)(F)F)c1ccccc1
inactive: [7] 103 % of control | [11] 97 % of control | [8] 101 % of control | [13] 102 % of control | [14] 103 % of control

NCCSSCCN
inactive: dose: 24.0 mg/kg/injection, schedule: Q04DX002 (ip), vehicle: saline with Tween-80 98 % of control | dose: 60.0 mg/kg/injection, schedule: Q04DX002 (ip), vehicle: saline with Tween-80 95 % of control | dose: 100.0 mg/kg/injection, schedule: Q04DX002 (ip), vehicle: saline 93 % of control | dose: 150.0 mg/kg/injection, schedule: Q04DX002 (ip), vehicle: saline with Tween-80 91 % of control | dose: 200.0 mg/kg/injection, schedule: Q04DX002 (ip), vehicle: saline 107 % of control

Source: PubChem BioAssay AID248 (DTP/NCI, 2004)
